The text below walks through data of paper PMC11184559, “Identification and Validation of Compounds Targeting Leishmania major Leucyl-Aminopeptidase M17” (ACS Infectious Diseases, 2024).

One assay has as its target rLmLAP (Leishmania major, UniProt Q7KF27). In words: RapidFire-MS aminopeptidase activity assay: inhibition of rLmLAP (LSTVIVR substrate). Format: biochemical. Particulars: for IC50: RapidFire-MS, 5 nM enzyme, 10 μM LSTVIVR, 20 min preincubation, 0.195-100 μM, mean ± standard error (n = 3). As for the experimental part: Assays were carried out as previously described,[24] with some differences indicated below. The reaction mix consisted of 0 nM (control) and 30 nM rLmLAP in 1× PBS, pH 7.0, 0.005% (v/v) NP-40, plus 7.5 μL of LSTVIVR substrate peptide in the same buffer. For product quantification, the peak areas of the LSTVIVR peptide were integrated with respect to the internal standard LSTVIVR* peptide. The C-terminal arginine was chosen because this amino acid is amenable to isotopic labeling.[45]
rLmLAP was assayed at 5 nM with 10 μM (1× appKM) of LSTVIVR substrate peptide. The enzyme was preincubated with bestatin or DMSO for 20 min. Bestatin was prepared at 10 concentrations in DMSO, covering the range from 0.39 to 100 μM. […] The remaining experimental conditions were maintained, as described above.
A high-throughput screen was conducted against rLmLAP using 3,383 compounds with known protease inhibitor motifs. The compounds were dispensed onto plates using an ECHO 550 acoustic dispenser (Labcyte, Sunnyvale, CA). The enzyme was assayed at 5 nM with 10 μM (1× appKM) LSTVIVR substrate for 60 min. Before adding the substrate, the enzyme was preincubated with 45 nL of the compounds or DMSO for 20 min. Compounds, dissolved in DMSO, were tested at 30 μM. […] No replicates were performed for each inhibitor in this experiment. The remaining experimental conditions were kept constant as described above. The ActivityBase program from IDBS provider (https://www.idbs.com) was used to process and analyze the data. Selection criteria for potential inhibitors in this screen required an inhibition percentage greater than the mean (calculated from the inhibition percentages of all the inhibitors) plus three standard deviations (SD). All compounds were purchased commercially and are >95% pure by HPLC.
To obtain IC50 data for screen-detected rLmLAP inhibitors at a single concentration, ten-point concentration–response curves were generated for selected inhibitors showing greater than mean ±3 SD inhibition. The curves were prepared in 384-well plates with a maximum concentration of 100 μM and 1:2 serial dilutions in DMSO (0.195–100 μM) using an ECHO 550 acoustic dispenser. All other experimental conditions were as described above for RapidFire-MS optimization. Three replicates of each concentration of inhibitor were evaluated. The IC50 value was calculated by nonlinear fitting of a four-parameter logistic function to the experimental data. Curve fitting and IC50 calculations were performed using IDBS ActivityBase XE version 9.2.0.106. Inhibitory activity was determined using the peak area ratio, calculated as the reaction product (STVIVR) divided by its internal standard (*LSTVIVR). The peak area ratio of the reaction without enzyme was defined as 100% inhibitory activity, and that of the complete reaction mixture was defined as 0% inhibitory activity. At least three replicates were generated for each hit compound.

Assay [1] relates to L. donovani intracellular amastigotes. In words: Leishmania donovani intracellular (intramacrophage) assay, single concentration. Particulars: 96 h, intracellular amastigotes in macrophages, Hoechst imaging; for Inhibition of L. donovani proliferation (%): 50 μM; for inhibition at 50 µM: Leishmania donovani, Macrophage, read-out: Inhibition of L. donovani proliferation (%). The class given is cell-based. As for the experimental part:
The effect of the compounds selected as inhibitors of rLmLAP on the proliferation of L. donovani amastigotes was evaluated at a concentration of 50 μM. Macrophage cultures (ECACC, catalog number: 88081201) were used as host cells. Parasites were incubated with 4.27× 10^7 macrophages, at a multiplicity of infection (MOI) of 5, at 37 °C with 5% CO2, overnight in DMEM medium supplemented with 4.5 g/L glucose and glutamine and 10% FBS, in a Millicell HY T-600 three-layer culture flask (Merck Millipore, Solna, Sweden). […] Macrophages were incubated for another 24 h in the above conditions with 133 μL of fresh DMEM medium prewarmed at 37 °C and supplemented with 10% FBS to obtain a high count of intracellular amastigotes.
Forty-two hours after macrophage infection, compounds (50 μM, 250 nL in DMSO) were dispensed using LabCyte ECHO into each well of 384-well dark flat bottom plates (Corning, New York, USA). The plates were incubated at 37 °C, 5% CO2, for 4 h (without compounds, with DMSO, to determine the initial level of infection) and for 96 h (with and without compounds).

The test system of assay [2] is LmLAP-overexpressing L. major promastigotes. In words: Drug sensitivity assay (resazurin), LmLAP-overexpressing L. major promastigotes. Conditions: Leishmania major. Format: cell-based. As for the experimental part: The basic L. major cytosolic leucyl aminopeptidase gene (LmjF.23.0950) was synthesized (GeneArt, Invitrogen) and cloned into the overexpression vector pIRT1_SAT by using BglII restriction sites. The pIRT1_SAT_LmLAP construct was sequenced to confirm correct sequence. Mid log phase L. major cells (1 × 10^7 cells) were transfected with 10 μg of heat-sterilized DNA using the Human T-Cell Nucleofector kit and AMAXA Nucleofector electroporator (program V-033). After a 24 h recovery period, nourseothricin was added to cultures to a final concentration of 100 μg/mL.
L. major promastigotes were seeded in 96-well plates at 5 × 10^4/mL, exposed to 2-fold serial dilutions of test compounds, and incubated at 28 °C for 72 h. Resazurin was, then, added to each well to a final concentration of 50 μM, and fluorescence was measured after 2–3 h (excitation of 528 nm and emission of 590 nm). The EC50 was calculated by processing the collected data by GRAFIT (version 5.0.4, Erithacus Software) and fitting them to the following two-parameter equation: [drawing 6] 6 where [I] is the inhibitor concentration, and m is the slope. Experiments were performed on at least three independent biological replicates. Data are presented as the weighted mean ± standard deviation.

The mark [3] stands for this setting: 72 h, read-out: EC50 (weighted mean), LmLAP-overexpressing (LAP-OE) L. major promastigotes.
Setting [4] is: read-out: EC50 (LAP-OE), representative curve.

Usually IC50 stands for the concentration that inhibits the measured activity by half. As a reminder, the EC50 is the concentration giving half of the maximal effect.

The structures appear in SMILES notation. Several values for one entry are separate records, joined by “and”; a condition that tells them apart may be missing. Identical values can stand only once. Like-named read-outs stand apart in the source and are kept apart here.

rLmLAP, sequence (Q7KF27 entry or part of it): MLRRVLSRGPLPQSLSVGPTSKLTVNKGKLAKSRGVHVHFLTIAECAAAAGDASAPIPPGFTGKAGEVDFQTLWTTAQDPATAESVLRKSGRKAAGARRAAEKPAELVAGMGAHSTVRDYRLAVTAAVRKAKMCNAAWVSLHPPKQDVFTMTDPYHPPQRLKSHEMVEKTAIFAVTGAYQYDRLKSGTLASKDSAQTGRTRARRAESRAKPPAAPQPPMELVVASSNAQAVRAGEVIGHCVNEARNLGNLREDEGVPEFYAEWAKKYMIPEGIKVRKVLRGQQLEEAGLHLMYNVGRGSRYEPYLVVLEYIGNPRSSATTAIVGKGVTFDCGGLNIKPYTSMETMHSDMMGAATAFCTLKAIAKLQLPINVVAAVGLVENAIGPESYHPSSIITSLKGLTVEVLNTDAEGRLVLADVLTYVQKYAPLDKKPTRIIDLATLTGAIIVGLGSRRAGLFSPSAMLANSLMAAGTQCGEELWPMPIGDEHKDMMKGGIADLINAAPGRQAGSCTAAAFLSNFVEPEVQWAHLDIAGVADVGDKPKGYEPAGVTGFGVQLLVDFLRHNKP

For the compound `COc1ccc(Cc2c(N)nc(-c3ccccn3)nc2N)cc1` [DDD00057570], on rLmLAP, the inhibition at 100 µM is 99%; the IC50 was 3.3 µM and 3 µM. In assay [1], the “Inhibition of L. donovani proliferation (%)” value was determined as 98.4 ± 2.9% and the inhibition at 50 µM amounted to 98 ± 2.9%. Moreover, the EC50 in assay [2] (setting [3]) came to 7 ± 1 µM. In addition, the EC50 in assay [2] (setting [4]) is 6.9 ± 1 µM.
`O=C(c1cccs1)N(CCCn1ccnc1)c1nc2ccccc2s1` [DDD00097924]: at rLmLAP, the inhibition at 100 µM was determined as 75%; the IC50 was 30.9 µM and 31 µM. Besides, the “Experimental ΔΔG” value at rLmLAP (DDD00097924 relative to DDD00057570) is on record as 1.3 kcal/mol. For the same compound, in assay [1], the “Inhibition of L. donovani proliferation (%)” value is on record as 77.8 ± 3.1% and the inhibition at 50 µM came to 78%. Besides, the EC50 in assay [2] (setting [3]) turned out to be 11 ± 1 µM. Besides, the EC50 in assay [2] (setting [4]) is 7.3 ± 1.4 µM.
